US4897382A, “Organic amide compounds derived from nitrogenous lipids” (priority 1981, dated 1990)
Entries after “also recorded” stand apart in the source; their conditions may differ. Like-named read-outs stand apart in the source and are kept apart here.

Experiments:
[1] = Anticonvulsant effects in rat (isoniazide convulsions); type: in vivo
Description: The in vivo activity of Product 1 was measured by the method described by Costa et al (E. Costa, A. Guidotti and C. C. Mao; "Evidence for involvement of GABA in the Action of Benzodiazepines: Studies in Rat Cerebellum" in Mechanism of Action of Benzodiazepines; Ed. by E. Costa and P. Greengard, New York, Raven Press. pp. 113-130 (1975)) and by Loescher and Frey (Loesher, W. and Frey, H. H.; "Effect of convulsant and anticonvulsant agents on level and metabolism of gamma-aminobutyric acid in mouse brain"; Naunyn-Schmiedeberg's Arch. Pharmacol. 296, 263-269 (1977)). These tests are based on the known activity of isoniazide to cause convulsions and a lowering of the GABA cerebral levels and the glutamic-decarboxylase enzyme activity.

dopamine receptors = target: T1, dopamine receptors (Rattus norvegicus, UniProt P61169); experiment: Binding of (^3H)-spiroperidole to hypophysis membranes of rat; conditions: for binding power / in vitro activity, in words: compared to the parent acid or lipid alone; for activity at 1 µM: test substance 10^-6 M; for activity at 0.1 µM: test substance 10^-7 M
T1 construct: on hypophysis sinaptosomal rat membranes; from tissue; host or cells: rat hypophysis (pituitary), synaptosomal membranes
T1 sequence (P61169 whole entry): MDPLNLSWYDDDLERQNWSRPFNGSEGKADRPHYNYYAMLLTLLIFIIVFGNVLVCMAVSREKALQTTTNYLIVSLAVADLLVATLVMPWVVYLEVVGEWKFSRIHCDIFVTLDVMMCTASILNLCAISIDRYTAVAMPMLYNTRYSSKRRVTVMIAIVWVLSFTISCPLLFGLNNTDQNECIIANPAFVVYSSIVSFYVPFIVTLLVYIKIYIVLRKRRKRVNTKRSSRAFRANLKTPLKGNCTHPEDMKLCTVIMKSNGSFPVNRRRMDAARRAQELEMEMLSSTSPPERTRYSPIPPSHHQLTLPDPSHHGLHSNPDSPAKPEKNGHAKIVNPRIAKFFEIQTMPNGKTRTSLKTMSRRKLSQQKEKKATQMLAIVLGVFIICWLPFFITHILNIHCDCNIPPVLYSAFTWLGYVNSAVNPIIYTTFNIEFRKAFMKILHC
Description: The in vitro biological activity was determined by comparative tests measuring the binding power of the labelled spiroperidole (^3 H)-spiroperidole on hypophysis sinaptosomal rat membranes according to the method described by Greese et al (GREESE I., SCHNEIDER R. and SNYDER S. H.; H-spiroperidole labels dopamine receptors in pituitary and brain; Europ. J. Pharmacol. 46, 377-381 (1977)).

prolactin [2] = experiment: Hypoprolactinemic effect in rats, serum prolactin by RIA, sulpiride-treated (hyperprolactinemic) animals; conditions: for inhibition in vivo at 0.5 mg/kg / inhibition in vivo at 5 mg/kg: Rattus norvegicus; for inhibition in vivo at 0.5 mg/kg: read-out: Prolactin Inhibition %, sulpiride 10 γ/kg + 0.5 mg/kg test substance; for inhibition in vivo at 5 mg/kg: read-out: Prolactin Inhibition %, sulpiride 10 γ/kg + 5.0 mg/kg test substance
prolactin [3] = experiment: Hypoprolactinemic effect in rats, serum prolactin by RIA, at the circadian peak at 4 p.m.; conditions: for inhibition in vivo at 0.5 mg/kg / inhibition in vivo at 5 mg/kg: Rattus norvegicus; for in vivo (hypoprolactinemic) activity, in words: rats, summary statement
[4] = General pharmacological activity in vitro and in vivo; conditions: tested in vitro and in vivo in laboratory animals
[5] = system: synaptic membranes of the rat cortex; experiment: Binding of ^3H-GABA on synaptic membranes of the rat cortex (method of Enna and Snyder); conditions: for Product bound % (^3H-GABA binding on rat cortex membranes): ^3H-GABA 2.10^-8 M
Text: Table I presents the results of these tests, expressed in percentage of the fixed active product, comparing the in vitro activity of Product 1 with the activities of the individual components which comprise Product 1.

[6] = isoniazide 160 mg/kg (s.c.) alone
[7] = read-out: Product bound % ((^3H) spiroperidole binding to hypophysis membranes), (^3H) spiroperidole 2.10^-9 M (2 nM), test substance 10^-4 M
[8] = read-out: Product bound % ((^3H) spiroperidole binding to hypophysis membranes), (^3H) spiroperidole 2.10^-9 M (2 nM), test substance 10^-5 M
[9] = read-out: Product bound % ((^3H) spiroperidole binding to hypophysis membranes), (^3H) spiroperidole 2.10^-9 M (2 nM)
[10] = sulpiride 10 γ/kg + 0.5 mg/kg test substance
[11] = sulpiride 10 γ/kg + 5.0 mg/kg test substance
[12] = 0.5 mg/kg, circadian peak at 4 p.m.
[13] = 5.0 mg/kg, circadian peak at 4 p.m.
[14] = read-out: Prolactin Inhibition %, 0.5 mg/kg, circadian peak at 4 p.m.
[15] = read-out: Prolactin Inhibition %, 5.0 mg/kg, circadian peak at 4 p.m.
[16] = (^3H) spiroperidole 2.10^-9 M (2 nM), test substance 10^-4 M, read-out: Product bound % ((^3H) spiroperidole binding to hypophysis membranes)
[17] = (^3H) spiroperidole 2.10^-9 M (2 nM), test substance 10^-5 M, read-out: Product bound % ((^3H) spiroperidole binding to hypophysis membranes)
[18] = (^3H) spiroperidole 2.10^-9 M (2 nM), read-out: Product bound % ((^3H) spiroperidole binding to hypophysis membranes)
[19] = read-out: Prolactin Inhibition %
[20] = isoniazide 160 mg/kg (s.c.) + sphingosine 12 mg/kg (i.p.)

SMILES	binding power / in vitro activity, in words (dopamine receptors)	activity at 100 µM (dopamine receptors; [7]) [%]	activity at 10 µM (dopamine receptors; [8]) [%]	activity at 1 µM (dopamine receptors; [9]) [%]	activity at 0.1 µM (dopamine receptors; [9]) [%]	inhibition in vivo at 0.5 mg/kg (prolactin [2]) [%]	inhibition in vivo at 5 mg/kg (prolactin [2]) [%]	Prolactin (prolactin [2]; [10]) [ng/mL]	Prolactin (prolactin [2]; [11]) [ng/mL]	Prolactin (prolactin [3]; [12]) [ng/mL]	Prolactin (prolactin [3]; [13]) [ng/mL]	inhibition in vivo at 0.5 mg/kg (prolactin [3]; [14]) [%]	inhibition in vivo at 5 mg/kg (prolactin [3]; [15]) [%]	in vivo (hypoprolactinemic) activity, in words (prolactin [3])	also measured
NNC(=O)c1ccncc1 [Isoniazide, isoniazide]	–	–	–	–	–	–	–	–	–	–	–	–	–	–	Latency of the convulsions measured [1, 6]: 3070 ± 110 s; Number of animals in convulsions [1, 6]: 26/30; Number of dead animals [1, 6]: 15
CCCCCCCCCCCCCC=CC(O)C(CO)NC(=O)[C@@H]1C=C2c3cccc4[nH]cc(c34)C[C@H]2N(C)C1 (some centres unmarked) [Product 2.2, Lysergylsphingosine-amide]	far superior to either lysergic acid or sphingosine alone	35	55	85	100	32	44	59.0 ± 6.0	49.0 ± 5.0	48.0 ± 4.8	40.0 ± 2.6	27	39	far superior to either lysergic acid or sphingosine alone	–
CCCCCCCCCCCCCC=CC(O)C(CO)NC(=O)C1CC2c3cccc4[nH]cc(c34)CC2N(C)C1 (centres unmarked) [Product 3, Dihydrolysergylsphingosine amide]	significant and far superior, under the same experimental conditions, to that of dihydrolysergic acid or sphingosine alone	10	40	90	100	30	60	53.7 ± 8.5	31.2 ± 2.5	38.7 ± 4.7	32.2 ± 5.7	42	52	significant biological activity	action in the central nervous system, in words [4]: capable of acting directly in the central nervous system
CCCCCCCCCCCCCCCC(O)C(CO)NC(=O)C1CC2c3cccc4[nH]cc(c34)CC2N(C)C1 (centres unmarked) [Product 15, Dihydrolysergyldihydrosphingosine amide]	far superior to either dihydrolysergic acid or dihydrosphingosine alone	20	30	90	100	44	55	48.0 ± 4.0	39.0 ± 6.0	40.0 ± 5.6	31.0 ± 3.4	35	50	far superior to either dihydrolysergic acid or dihydrosphingosine alone	action in the central nervous system, in words [4]: capable of acting directly in the central nervous system
CCCCCCCCCCCCCC=CC(O)C(COC1OC(CO)C(O)C(O)C1O)NC(=O)C1CC2c3cccc4[nH]cc(c34)CC2N(C)C1 (centres unmarked) [Product 16, Dihydrolysergylpsychosine amide]	far superior to either dihydrolysergic acid or psychosine alone	25	45	80	100	37	52	51.0 ± 7.0	39.0 ± 4.0	40.0 ± 7.0	31.0 ± 6.0	31	47	far superior to either dihydrolysergic acid or psychosine alone	action in the central nervous system, in words [4]: capable of acting directly in the central nervous system
CN1C[C@H](C(=O)O)CC2c3cccc4[nH]cc(c34)C[C@H]21 (some centres unmarked) [dihydrolysergic acid]	–	45	95	100	100	0	–	–	–	–	–	0	25	weak effect; also recorded: essentially inactive when administered alone	Product bound % ((^3H) spiroperidole binding to hypophysis membranes) (dopamine receptors; (^3H) spiroperidole 2.10^-9 M (2 nM), test substance 10^-4 M, 100 µM): 60%; Product bound % ((^3H) spiroperidole binding to hypophysis membranes) (dopamine receptors; (^3H) spiroperidole 2.10^-9 M (2 nM), test substance 10^-5 M, 10 µM): 90%
CCCCCCCCCCCCCCCC(O)C(N)CO (centres unmarked) [dihydrosphingosine]	–	–	–	–	–	–	–	81.0 ± 11.0	74.0 ± 6.0	66.0 ± 4.2	60.0 ± 2.8	–	–	–	activity at 100 µM (dopamine receptors; [16]): 100%; activity at 10 µM (dopamine receptors; [17]): 100%; activity at 1 µM (dopamine receptors; [18]): 100%; activity at 0.1 µM (dopamine receptors; [18]): 100%; inhibition in vivo at 0.5 mg/kg (prolactin [3]; [19]): 0%; inhibition in vivo at 5 mg/kg (prolactin [3]; [19]): 0%
CN1C[C@@H](C(=O)O)C=C2c3cccc4[nH]cc(c34)C[C@H]21 [isolysergic acid]	–	–	–	–	–	–	–	–	–	–	–	–	–	essentially inactive when administered alone	–
CN1C[C@H](C(=O)O)C=C2c3cccc4[nH]cc(c34)C[C@H]21 [lysergic acid]	–	60	90	100	100	13	16	76.0 ± 9.0	73.0 ± 10.0	61.0 ± 3.8	52.0 ± 6.2	0	20	essentially inactive when administered alone	–
CCCCCCCCCCCCCC=CC(O)C(N)COC1OC(CO)C(O)C(O)C1O (centres unmarked) [psychosine, Psychosine or galactosylsphingosine]	–	–	–	–	–	–	–	70.0 ± 6.0	61.0 ± 7.0	50.0 ± 5.0	41.0 ± 5.0	–	–	–	activity at 100 µM (dopamine receptors; [16]): 60%; activity at 10 µM (dopamine receptors; [17]): 90%; activity at 1 µM (dopamine receptors; [18]): 100%; activity at 0.1 µM (dopamine receptors; [18]): 100%; inhibition in vivo at 0.5 mg/kg (prolactin [3]; [19]): 14%; inhibition in vivo at 5 mg/kg (prolactin [3]; [19]): 30%
CCCCCCCCCCCCC/C=C/[C@@H](O)[C@@H](N)CO [sphingosine]	–	100	100	100	100	0	–	–	–	–	–	0	0	–	Prolactin Inhibition % (prolactin [2]; [10]): 0%; Product bound % (^3H-GABA binding on rat cortex membranes) ([5]; test substance 10^-4 M, 100 µM): 100%; Product bound % (^3H-GABA binding on rat cortex membranes) ([5]; test substance 10^-5 M, 10 µM): 100%; Product bound % (^3H-GABA binding on rat cortex membranes) ([5]; test substance 10^-6 M, 1 µM): 100%; Product bound % (^3H-GABA binding on rat cortex membranes) ([5]; test substance 10^-7 M, 0.1 µM): 100%; Product bound % (^3H-GABA binding on rat cortex membranes) ([5]; test substance 10^-8 M, 0.01 µM): 100%; in vitro biological activity (GABA binding), in words ([5]; summary of Table I): no biological activity; Prolactin Inhibition % (prolactin [3]; [12]): 0%; Prolactin Inhibition % (prolactin [3]; [13]): 0%; Latency of the convulsions measured [1, 20]: 3700 ± 200 s; Number of animals in convulsions [1, 20]: 20/30; Number of dead animals [1, 20]: 9
